The results in this text go back to patent US5198452A, “Styryl phridyl compounds and their pharmaceutical compositions” (Yoshitomi Pharmaceutical Industries, Ltd., priority 1991, dated 1993).

Where two headings read alike, the source gives them in different places.

The test system of data set [1] is bronchoconstriction in guinea pigs induced with leukotriene D4. The data set is described as follows: Bronchoconstriction in guinea pigs induced with leukotriene D4. The class given is in vivo, guinea pig (female Hartley). To be noted: Cavia porcellus. As for the experimental part:
Actions of bronchoconstriction in guinea pigs induced with leukotriene D4.
Resistance to lung inflation was measured by the overflow method of Konzett and Rossler (Naunyn Schmiedebergs Arch. Exp. pathol. Pharmakol., 195, 71-74, 1940), modified by the use of an air pressure transducer. Female Hartley guinea pigs (350-450 g) were anesthetized with urethane (1.5 g/kg, i.p.). An endotracheal tube was inserted in the trachea and connected to an air pump (Matsushita Denko Co., Ltd.) with an exhaust relay of 50 strokes/minutes (PK-0305-NC, Takasago Electric, Inc.). The animals were artificially ventilated at a constant volume (3-4 ml). Tracheal pressure was recorded with a side-arm of the cannula connected to a pressure transducer (MFP-1, Nihon Kohden Kogyo Co., Ltd.). Test compounds or vehicles were administered i.v. (0.03 ml/100 g) 5 minutes or p.o. (0.5 ml/100 g) 1 hour prior to the intraveneous injection of LT04 (1 μg/kg). All compounds were injected through the cannulated jugular vein. The peak bronchoconstriction of each animal was determined as the percentage of the maximal pressure obtained by clamping off the trachea at the end of each experiment.
The inhibitory effect of the test compounds were expressed as follows: % of inhibition=(1-T/C)×100 wherein T and C are the average peak bronchoconstrictions for the compounds of the present invention and the vehicle, respectively.
The 50% effective doses (ED50, mg/kg) were calculated graphically.

Data set [2] deals with leukotriene D4-induced contraction of guinea pig terminal ileum. The data set is described as follows: Inhibition of contractions of guinea pig terminal ileum induced with leukotriene D4. Also noted: species or system guinea pig (male Hartly). Conditions: 1 nM LTD4; 2 min incubation; indomethacin 3 μM, atropin 0.3 μM; 37° C. As for the experimental part:
The inhibition of contractions of guinea pig terminal ileum induced with leukotriene D4.
Segments of male Hartly guinea pig terminal ileus were mounted under 750 mg tension in a 10 ml organ bath containing a Tyrode solution. To eliminate instrinsic prostaglandin and cholinergic responses, indomethacin (3 μM) and atropin (0.3 μM) were incorporated into bathing solution under continuous aeration at 37° C. […] measurements were made with an isotonic transducer and recorded on a multipen-recorder. After an equilibration period of 30-60 minutes, isotonic responses were 1 nm LTD4 were recorded until reproducible responses obtained. The submaximal contraction induced by 1 nM LTD4 served as control. Test compounds were dissolved in ethanol (0.1% final concentration) and incubated at various concentrations for 2 minutes before contractions were induced with 1 nM LTD4. The inhibition of contraction was calculated relative to the preceding control contraction. The inhibitory concentration (IC50, g/ml) were calculated graphically.

The next data set in a line: Acute toxicity. Conditions: mouse, in vivo, single administration, after 10 days, Litchfield-Wilcoxon. As for the experimental part: EXPERIMENT EXAMPLE 3: ACUTE TOXICITY
The compound of Example 1 of the present invention was intraveneously (iv) or orally (po) administered to a group of male ddy mice once. After 10 days, the LD50 values were determined by the Litchfield-Wilcoxon method.

[3] abbreviates: 5 min, iv, 5 minutes prior to LTD4 (1 μg/kg i.v.), read-out: Action of Bronchoconstriction in guinea pigs induced with LTD4 [ED50 (mg/kg)] iv.
[4] abbreviates: po, 1 hour prior to LTD4 (1 μg/kg i.v.), read-out: Action of Bronchoconstriction in guinea pigs induced with LTD4 [ED50 (mg/kg)] po.

As to `CCC(CC)(CC(=O)Nc1cccc(/C=C/c2cccc(COCCCCc3ccccc3)n2)c1)C(=O)O` [Compound A, 2-[(E)-2-(3-(3-carboxy-3-ethylvalerylamino)phenyl)ethenyl]-6-(4-phenylbutoxy)methylpyridine 1/2 hydrate], the results for the ED50 in data set [1] (setting [3]) and in data set [1] (setting [4]) were 0.037 mg/kg and 1.3 mg/kg, respectively. Also, the “The inhibition of contractions of guinea pig terminal ileum induces with LTD4 [IC50 (g/ml)]” value (shortened to “The inhibition”) in data set [2] was 2.2e-09 g/mL.
For `CCCCc1ccc(CCCCOCc2cccc(/C=C/c3cccc(NC(=O)CC(CC)(CC)C(=O)O)c3)n2)cc1` [Compound B, 2-[(E)-2-(3-(3-carboxy-3-ethylvalerylamino)phenyl)ethenyl]-6-[4-(4-butylphenyl)butoxy]methylpyridine], in that order: 0.0054 mg/kg, 0.8 mg/kg and 1.1e-10 g/mL.
In the same order, the values of `CCC(CC)(CC(=O)Nc1cccc(/C=C/c2cccc(COCCCCc3ccc(F)cc3)n2)c1)C(=O)O` [Compound C, 2-[(E)-2-(3-(3-carboxy-3-ethylvalerylamino)phenyl)ethenyl]-6-[4-(4-fluorophenyl)butoxy]methylpyridine 1/2 hydrate] are 0.03 mg/kg, 0.7 mg/kg and 2.5e-09 g/mL.
For `CCc1ccc(CCCCOCc2cccc(/C=C/c3cccc(NC(=O)CC(CC)(CC)C(=O)O)c3)n2)cc1` [Compound D, 2-[(E)-2-(3-(3-carboxy-3-ethylvalerylamino)phenyl)ethenyl]-6-[4-(4-ethylphenyl)butoxy]methylpyridine], in that order: 0.0023 mg/kg, 1 mg/kg and 6.6e-11 g/mL.
On to `CCCc1ccc(CCCCOCc2cccc(/C=C/c3cccc(NC(=O)CC(CC)(CC)C(=O)O)c3)n2)cc1` [Compound E, 2-[(E)-2-(3-(3-carboxy-3-ethylvalerylamino)phenyl)ethenyl]-6-[4-(4-propylphenyl)butoxy]methylpyridine 1/4 hydrate], for which the ED50 in data set [1] (setting [3]) came out at 0.006 mg/kg; in data set [1] (setting [4]) it was 1.9 mg/kg. Also, the “The inhibition” value in data set [2] was found to be 6e-10 g/mL.
For `CCC(CC)(CC(=O)Nc1cccc(/C=C/c2cccc(COCCCCc3ccc(C(C)C)cc3)n2)c1)C(=O)O` [Compound F, 2-[(E)-2-(3-(3-carboxy-3-ethylvalerylamino)phenyl)ethenyl]-6-[4-(4-isopropylphenyl)butoxy]methylpyridine], in that order: 0.014 mg/kg, 2.2 mg/kg and 4e-10 g/mL.
In the same order, the values of `CCC(CC)(CC(=O)Nc1cccc(/C=C/c2cccc(COCCCCc3ccc(CC(C)C)cc3)n2)c1)C(=O)O` [Compound G, 2-[(E)-2-(3-(3-carboxy-3-ethylvalerylamino)phenyl)ethenyl]-6-[4-(4-isobutylphenyl)butoxy]methylpyridine] are 0.0012 mg/kg, 1.6 mg/kg and 3.6e-10 g/mL.
For `CCOc1ccc(CCCCOCc2cccc(/C=C/c3cccc(NC(=O)CC(CC)(CC)C(=O)O)c3)n2)cc1` [Compound H, 2-[(E)-2-(3-(3-carboxy-3-ethylvalerylamino)phenyl)ethenyl]-6-[4-(4-ethoxyphenyl)butoxy]methylpyridine], in that order: 0.01 mg/kg, 2 mg/kg and 1.8e-10 g/mL.
`CCCOc1ccc(CCCCOCc2cccc(/C=C/c3cccc(NC(=O)CC(CC)(CC)C(=O)O)c3)n2)cc1` [Compound I, 2-[(E)-2-(3-(3-carboxy-3-ethylvalerylamino)phenyl)ethenyl]-6-[4-(4-propoxyphenyl)butoxy]methylpyridine]: the ED50 in data set [1] (setting [3]) was 0.0023 mg/kg; in data set [1] (setting [4]) it was 2.5 mg/kg. In data set [2], the “The inhibition” value was 7.6e-11 g/mL.
For `CCCCOc1ccc(CCCCOCc2cccc(/C=C/c3cccc(NC(=O)CC(CC)(CC)C(=O)O)c3)n2)cc1` [Compound J, 2-[(E)-2-(3-(3-carboxy-3-ethylvalerylamino)phenyl)ethenyl]-6-[4-(4-butoxyphenyl)butoxy]methylpyridine 3/2 hydrate], in that order: 0.0046 mg/kg, 0.46 mg/kg and 9e-11 g/mL.
Regarding `CCC(CC)(CC(=O)Nc1cccc(/C=C/c2cccc(COCCCCc3ccc(OCCC(C)C)cc3)n2)c1)C(=O)O` [Compound K, 2-[(E)-2-(3-(3-carboxy-3-ethylvalerylamino)phenyl)ethenyl]-6-[4-(4-isopentyloxyphenyl)butoxy]methylpyridine 1/2 hydrate], the figures for the ED50 in data set [1] (setting [3]) and in data set [1] (setting [4]) were 0.0036 mg/kg and 0.25 mg/kg, respectively. Also, the “The inhibition” value in data set [2] came out at 3.1e-10 g/mL.
In the same order, the values of `CCCc1c(OCCCCc2nnn[nH]2)ccc(C(C)=O)c1O` [Compound L, 1-[2-hydroxy-3-propyl-4-(4-(1H-tetrazol-5-yl)butoxy)phenyl]ethanone, reference compound] are 0.28 mg/kg, 22 mg/kg and 2.5e-08 g/mL.
In the case of `CCC(CC)(CC(=O)Nc1cccc(/C=C/c2cccc(COCCCCc3ccc(C)cc3)n2)c1)C(=O)O` [Example 1, 2-[(E)-2-(3-(3-carboxy-3-ethylvalerylamino)phenyl)ethenyl]-6-[4-(4-methylphenyl)butoxy]methylpyridine], the LD50 at 240 h is more than 300 mg/kg in the data set “Acute toxicity” (iv, read-out: LD50 (mg/kg), iv) and more than 1000 mg/kg in “Acute toxicity” (po, read-out: LD50 (mg/kg), po).
